In paper PMC5794978, “Molecular identification, transcript expression, and functional deorphanization of the adipokinetic hormone/corazonin-related peptide receptor in the disease vector, Aedes aegypti” (Scientific Reports, 2018):
Entries after “also recorded” stand apart in the source; their conditions may differ. Non-standard residues stand in square brackets, D forms with d. Residues, ends and D or L forms follow the SMILES beside them. No end group written: not given here. pGlu = O=C1CC[C@@H](C(=O)O)N1

Biological target: T1, AedaeACPR-I (Aedes aegypti, UniProt A0A2L0VBG2)
T1 construct: only the ACPR-I transcript yields a complete receptor protein which we functionally deorphanized; expressed in transfected cells; host or cells: CHO-K1 cells stably expressing aequorin, transient transfection with pcDNA3.1+
T1 sequence (A0A2L0VBG2 1-577): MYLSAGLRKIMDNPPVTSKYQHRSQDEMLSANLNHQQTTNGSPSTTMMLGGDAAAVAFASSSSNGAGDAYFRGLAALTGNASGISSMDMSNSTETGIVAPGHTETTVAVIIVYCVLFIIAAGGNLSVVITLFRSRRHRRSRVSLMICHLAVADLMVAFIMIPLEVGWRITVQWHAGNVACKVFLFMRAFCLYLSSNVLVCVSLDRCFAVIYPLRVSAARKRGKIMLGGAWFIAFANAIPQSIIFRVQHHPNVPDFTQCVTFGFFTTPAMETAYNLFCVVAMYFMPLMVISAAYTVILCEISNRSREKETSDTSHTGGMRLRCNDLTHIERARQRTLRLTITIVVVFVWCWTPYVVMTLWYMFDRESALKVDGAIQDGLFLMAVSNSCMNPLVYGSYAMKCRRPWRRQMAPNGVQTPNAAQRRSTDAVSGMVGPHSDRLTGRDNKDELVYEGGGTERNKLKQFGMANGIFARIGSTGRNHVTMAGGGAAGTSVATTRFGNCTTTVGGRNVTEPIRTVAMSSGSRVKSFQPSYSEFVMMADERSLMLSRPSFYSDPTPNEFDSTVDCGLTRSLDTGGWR
Assay: Heterologous receptor functional assay (aequorin bioluminescence) in CHO-K1 cells transiently expressing AedaeACPR-I
Format: cell-based
Conditions: for EC50: CHOK1-aeq cells transiently expressing AedaeACPR-I, peptide doses 10^-12 to 10^-5 M in quadruplicate, luminescence response, average of multiple independent biological replicates (four independent transfections); for Receptor activation (luminescence response): CHO-K1 aequorin cells transiently expressing AedaeACPR-I, doses 10^-12 to 10^-5 M
Procedure: Functional activation of AedaeACPR-I was assayed using a previously established cell culture system involving a recombinant Chinese hamster ovary (CHO)-K1 cell line stably expressing aequorin[35]. […] At 48 hours post-transfection, cells were detached from the culture flasks using Dulbecco’s phosphate buffered saline (DPBS; Wisent Corporation, St. Bruno, QC) containing 5 mM EDTA and resuspended in BSA medium (DMEM-F12 media containing 0.1% bovine serum albumin, 1X antimycotic-antibiotic) to a concentration of 10^6–10^7 cells/mL. Coelenterazine h (Promega, Madison, WI, USA) was added to the cells to a final concentration of 5 μM, and incubated for 3 hours in the dark at room temperature on a stirrer set at 200 rpm. The cell suspension was then diluted 10-fold and incubated at room temperature for an additional hour. Serial dilutions of peptide ligands (Table 1) were prepared in BSA medium (10^−5 to 10^−12 M), and loaded in quadruplicates into 96-well luminescence plates (Greiner Bio-One, Germany). All peptides were commercially synthesized (Genscript, Piscataway, NJ) at a purity >90% and were prepared in dimethyl sulfoxide at a stock concentration of 1 mM. Cells were loaded into each well with an automatic injector unit and luminescence was measured for 20 seconds using a Synergy 2 Multi-Mode Microplate Reader (BioTek, Winooski, VT, USA). BSA medium alone was utilized as a negative control and 5 × 10^−5 M ATP was used as a positive control, which acts on endogenously expressed purinoceptors[36],[37]. EC50 values were calculated in GraphPad Prism 7.02 (GraphPad Software, San Diego, USA) from dose-dependent curves from four independent transfections.
A heterologous receptor functional assay involving CHO-K1 cells was used to validate the cloned receptor as a bona fide ACP receptor. […] Our findings in this study are consistent with past reports, since similar binding specificity of ACP receptors has been observed previously in T. castaneum, A. gambiae, and R. prolixus with EC50 values reported in the low nanomolar range[17],[25]. Additionally, previous research in the aforementioned insects have also observed that the AKH receptors are not activated by ACP or corazonin peptides, and similarly, the corazonin receptors are not activated by ACP or AKH peptides[17],[25],[43],[44].
Figure 4 Functional heterologous receptor assay of CHO-K1 aequorin cells transiently expressing the AedaeACPR-I. (a) Dose dependent effect on the bioluminescence response (mean 0–15 s) after the addition of between 10^−12–10^−5 M doses of A. aegypti ACP, AKH and CRZ peptides. Luminescence is normalized to the BSA control and plotted relative to the maximal response (10^−5 M). […] (b) Kinetics of the bioluminescence response measured between 0–5 s, 6–10 s, and 11–20 s time intervals, following the addition of 1 × 10^−6 M of the above peptides normalized to vehicle control (BSA media). Luminescence is normalized to the BSA control and plotted relative to the maximal response (10^−5 M). Data represent the mean ± standard error (n = 4).

CC(C)[C@H](NC(=O)[C@@H]1CCC(=O)N1)C(=O)N[C@H](C(=O)N[C@@H](Cc1ccccc1)C(=O)N[C@@H](CO)C(=O)N[C@@H](CCCNC(=N)N)C(=O)N[C@@H](CC(=O)O)C(=O)N[C@@H](Cc1c[nH]c2ccccc12)C(=O)N[C@@H](CC(N)=O)C(=O)N[C@@H](C)C(N)=O)[C@@H](C)O [AedaeACP] ([pGlu]VTFSRDWNA-NH2)
EC50: 0.0103 µM

CC(C)C[C@H](NC(=O)[C@@H]1CCC(=O)N1)C(=O)N[C@H](C(=O)N[C@@H](Cc1ccccc1)C(=O)N[C@H](C(=O)N1CCC[C@H]1C(=O)N[C@@H](CO)C(=O)N[C@@H](Cc1c[nH]c2ccccc12)C(N)=O)[C@@H](C)O)[C@@H](C)O [AedaeAKH] ([pGlu]LTFTPSW-NH2)
Receptor activation (luminescence response): no detectable luminescence indicative of receptor activation; also recorded: No receptor activation was detected | EC50: > 10 µM

C[C@@H](O)[C@H](NC(=O)[C@H](CC(N)=O)NC(=O)[C@H](Cc1c[nH]c2ccccc12)NC(=O)CNC(=O)[C@H](CCCNC(=N)N)NC(=O)[C@H](CO)NC(=O)[C@H](Cc1ccc(O)cc1)NC(=O)[C@H](CCC(N)=O)NC(=O)[C@H](Cc1ccccc1)NC(=O)[C@@H](NC(=O)[C@@H]1CCC(=O)N1)[C@@H](C)O)C(=O)N[C@@H](CC(N)=O)C(N)=O [AedaeCRZ] ([pGlu]TFQYSRGWNTN-NH2)
Receptor activation (luminescence response): no detectable luminescence indicative of receptor activation; also recorded: No receptor activation was detected

AGNSGANSGMWFGPRL-NH2 [AedaeCAPA-PK1]
Receptor activation (luminescence response) (listed as AedaePK1): no detectable luminescence indicative of receptor activation; also recorded: No receptor activation was detected | EC50: > 10 µM

GPTVGLFAFPRV-NH2 [AedaeCAPA1]
Receptor activation (luminescence response): No receptor activation was detected | Receptor activation (luminescence response) (listed as AedaeCAPA-1): no detectable luminescence indicative of receptor activation | EC50: > 10 µM
